Patent publication US4322528A (priority 1979, dated 1982)
Where two headings read alike, the source gives them in different places.

Assays:
Assay in all cases: whole plant or invertebrate
[1] = test system: Parathion-resistant Two-spotted Spider Mite Egg; settings: Tetranychus urticae, foliar, read-out: Parathion-resistant Two-spotted Spider Mite, Egg, % control @ ppm
[2] = test system: Housefly Adult; settings: Musca domestica, read-out: Housefly Adult, Contact Spray, % control @ ppm
[3] = test system: Cabbage Looper Larvae; settings: Trichoplusia ni, foliar, read-out: Cabbage Looper Larvae, Leaf Feed, % control @ ppm
[4] = test system: Housefly Larvae; settings: Musca domestica, soil, 168 h
[5] = test system: Hock Colorado Potato Beetle 2nd Stg. Larva; settings: Leptinotarsa decemlineata, foliar, read-out: Hock Colorado Potato Beetle 2nd Stg. Larva, Leaf Feed, % control @ ppm
[6] = test system: Tobacco Budworm Larvae; settings: Heliothis virescens, foliar, read-out: Tobacco Budworm Larvae, Leaf Feed, % control @ ppm
[7] = read-out: 7-Day Exposure Housefly Larvae Treatment, % control, C @ ppm (second sub-column)
[8] = read-out: 7-Day Exposure Housefly Larvae Treatment, % control @ ppm

SMILES | mortality at 40 ppm [1] [%] | mortality at 100 ppm [2] [%] | mortality at 500 ppm [3] [%] | mortality at 40 ppm [4, 7] [%] | mortality at 500 ppm [5] [%] | mortality at 500 ppm [6] [%] | mortality at 40 ppm [4, 8] [%]
ClC1=NC(Cl)(Cl)C2(Cl)C3CC(C(Cl)C3Cl)C12Cl (centres unmarked) [Ex. 3, 4-aza-2,3,5,5,6,8,9-heptachlorotricyclo[5.2.1.0^2.6]dec-3-ene] | 31 | 83 | 26 | 67 |  |  | 
ClC1=C(Cl)C2(Cl)C(c3ccccc3)CN1C2(Cl)Cl (centres unmarked) [Ex. 4, 1-aza-5-phenyl-2,3,4,7,7-pentachlorobicyclo[2.2.1]-2-heptene] | 77 | 10 |  |  | 50 | 66 | 43
ClC1=C(Cl)C2(Cl)C3c4ccccc4CC3N1C2(Cl)Cl (centres unmarked) [Ex. 5, 1-aza-4,5-benzo-7,8,9,10,10-pentachlorotricyclo[5.2.1.0^2.6]-8-decene] | 13 | 42 |  |  |  | 6 | 47
CCOP(=S)(OCC)Oc1cc(C)nc(C(C)C)n1 [Diazinon, reference compound] |  |  |  | 37 |  |  | 
